From patent publication US20260083698A1, “Synergistic Stimulation of Mucociliary Clearance to Treat Mucus Obstruction in Cystic Fibrosis and Other Muco-Obstructive Disorders” (The Board of Trustees of the Leland Stanford Junior …, priority 2022, published 2026) come the findings set out here.

This test deals with pig tracheal mucosa. As to the kind of experiment: Short circuit current (Isc) and conductance, Ussing chamber, pig. The following applies: WT pigs; 30 min single agonist then 30 min combined. From the text: FIG. 4. Combined agonists inhibit sodium absorption and stimulate anion secretion by surface epithelia. (A) Cartoon of two electrogenic, ion transport pathways across airway apical epithelium: anion secretion increases surface fluid, Na+ absorption decreases surface fluid. The two pathways have opposite effects on fluid depth, but additive effects on short circuit current (Isc) because of their opposite valence and transport directions. (B) Raw trace of Isc across pig tracheal epithelium using Chart 4 software. After reaching a stable, unstimulated Isc (here, >2 h post-mounting), 10 μM forskolin, 0.3 μM carbachol, 10 μM benzamil, 20 μM benzopyrimido-pyrrolo-oxazinedione (BPO-27) and 200 μM niflumic acid were sequentially added at times shown. (C, D) Pig tracheal mucosa: averaged Δ Isc plots over time in response to (C) forskolin alone followed by forskolin+carbachol and (D) reversed order of agonist addition. (E & F) Ferret tracheal mucosa: averaged A Isc plots with same protocol as for pigs. Pig traces (C, D) are based on 10-12 experiments with tissues from 6 to 7 pigs. Ferret traces (E, F) are from 7 experiments with tissues from 5 ferrets.
Combined agonists stimulate epithelial surface anion secretion and inhibit Na^+ absorption. The surface epithelia also modify ASL. FIG. 4A is a cartoon of the main ion flows controlling ASL depth: anion-mediated fluid secretion increases, and Na^+-mediated fluid absorption decreases ASL depth. It was hypothesized that the combined agonists increase ASL depth and thus MCCV by stimulating secretion and inhibiting absorption (see also FIG. 6). […] With no counterbalancing absorption ASL depth is predicted to increase (dotted gold line in FIG. 6A) unless MCCV increases.
Inhibiting Na+ absorption would increase net fluid accumulation on the surface. […]
Electrophysiology. […] Total tissue conductance was calculated by applying Ohm's law to the Isc deflection resulting from a 1 mV pulse across the tissues every 20 s during the experiment. […]

Turning to `C[N+](C)(C)CCOC(N)=O` [carbachol], the “ΔIsc, summary plots” value is given as “decreased directly or after a transient increase”.
